Laboratory results taken from publication PMC9266004, “Potential Common Mechanisms of Cytotoxicity Induced by Amide Herbicides via TRPA1 Channel Activation” (International Journal of Environmental Research and Public …, 2022).
Where two headings read alike, the source gives them in different places.

Tests used:
[1] = system: TRPA1-KO A549 cells; experiment: CCK-8 cell viability assay in TRPA1-KO A549 cells; type: cell-based, human; settings: for IC50: Homo sapiens, TRPA1-KO A549 cells, 24 h treatment, CCK-8, read-out: IC50 values of AHs, TRPA1-KO A549 Cells; for viability of TRPA1-KO A549 cells compared with AHs-treated WT cells: KO of TRPA1, AHs 150, 300, 600 μM
Method: (§1) The hTRPA1 gene sequence (Gene ID: 8989) was obtained from the National Center for Biotechnology Information (NCBI) website (https://www.ncbi.nlm.nih.gov/gene/8989 accessed on 26 May 2022). Three gRNA sequences, namely, T1: 5′-[…]-[…], T16: 5′-[…]-3′, and T20: 5′-[…]-3′, were designed using the CRISPR online design tool (http://crispr.mit.edu/ accessed on 26 May 2022). Transfection of cells with gRNA-Cas9 was validated in test cells. Cell pool examination was performed using Sanger sequencing. Sequencing and tracer analysis were performed using the online tool TIDE (https://tide-calculator.nki.nl/ accessed on 26 May 2022) to investigate the cleavage efficiency of T1, T16, and T20. Cells from the cell pool were diluted in 96-well plates. Clones were observed under a microscope and wells containing single cell clones were labeled. Single cell clones were transferred to 24-well plates for expansion. Validation of knockout (KO) clones was performed via sequencing to confirm insertion and deletion on the genomes of KO clone candidates. Furthermore, mycoplasmas were detected for cloned cells with high KO using the Mycoplasma PCR Detection Kit.
(§2) Wild-type (WT) and TRPA1-KO A549 cells were cultured in McCoy’s 5A Media and F-12K Nutrient Mixture containing 10% fetal bovine serum, respectively. WT/TRPA1-KO A549 cells (5 × 10^4 cells/mL) were seeded in 96-well (100 μL/well) and 6-well (2 mL/well) plates and incubated at 37 °C with 5% CO2 in a humidified incubator for 24 h. WT/TRPA1-KO A549 cells were treated with AHs gradient concentrations (0, 150, 300, 600, 1200 μM) prepared in methanol (1.2 M) for 24 h. Additionally, WT/TRPA1-KO A549 cells were pre-treated with TRPA1 special inhibitor HC-030031 (100 μM) for 0.5 h and then treated with AHs gradient concentrations for 24 h.
(§3) To conduct the cell viability assay, the growth medium was removed from WT/TRPA1-KO A549 cells cultured in a 96-well plate. CCK-8 reagent was mixed with complete medium (1:9 volume ratio), and 100 µL of the CCK-8 reagent mixture was added to each well. The plate was incubated for 4 h and the absorbance was measured at 450 nm using a microplate reader (BNR05740; Molecular Devices, Sunnyvale, CA, USA). The average absorbance from each sextuplicate set of wells was calculated and the background control value was subtracted from each absorbance value. The percentage cell viability was determined using the following equation:cell viability (%) = [(As − Ab)/(Ac − Ab)] × 100% where As is the absorbance of the experimental well (containing medium, CCK-8 reagent, cells, and compound); Ac is the absorbance of the control well (containing medium, CCK-8 reagent, and cells); and Ab is the absorbance of the blank well (containing medium and CCK-8 reagent).

[2] = system: A549 cells; experiment: LDH cytotoxicity assay; type: cell-based, human
Method: as §2
Using the Cytotoxicity LDH Assay Kit, lysis buffer (10 μL) was added to the high control well of a 96-well plate containing WT/TRPA1-KO A549 cells, which was then incubated for 0.5 h. Working solution was prepared by adding 5 mL assay buffer to the dye mixture vial, of which 100 μL was added to each well. The plate was protected from light and incubated at room temperature for 0.5 h. Subsequently, 50 μL stop solution was added to each well and the absorbance was measured immediately at 490 nm using a microplate reader (BNR05740, Molecular Devices). The average absorbance was calculated from each sextuplicate set of wells and the background control value was subtracted from each absorbance value. The percentage cytotoxicity was determined using the following equation:cytotoxicity (%) = [(Aa − Ab1)/(Ab2 − Ab1)] × 100% where Aa is the absorbance of the experimental well (containing medium, cells, and compound); Ab2 is the absorbance of the high control well (containing medium, cells, and lysis buffer); and Ab1 is the absorbance of the low control well (containing medium and cells).

[3] = system: calcium influx in A549 cells; experiment: Cellular calcium imaging (Fluo-4) in WT A549 cells; type: cell-based, human; settings: for calcium influx compared with 0 μM AHs: A549 cells, 150, 300, 600, 1200 μM; for calcium influx with HC-030031 pre-treatment compared with AHs treatment alone: A549 cells, HC-030031 50 μM, AHs 150-1200 μM
Method: as §2, with “Additionally, WT/TRPA1-KO A549 cells were pre-treated with TRPA1 special inhibitor HC-030031 (100 μM) for 0.5 h and then treated with AHs gradient concentrations for 24 h.” left out
(§4) Working solution was prepared according to the instructions of the Fluo-4 Direct calcium assay kit and directly added to WT/TRPA1-KO A549 cells in 96-well plates, which were incubated for 0.5 h and kept away from light after removal from the incubator. Single channel fluorescein isothiocyanate (FITC) levels were measured using a confocal high-content imaging system (IXM-C S150069, Molecular Devices, San Jose, CA, USA).

[4] = system: calcium influx in TRPA1-KO A549 cells; experiment: Cellular calcium imaging (Fluo-4) in TRPA1-KO A549 cells; type: cell-based, human; settings: AHs 150-1200 μM
Method: as §1, §2, §4

[5] = system: A549 cells; experiment: CCK-8 cell viability assay in WT A549 cells; type: cell-based, human; settings: for viability of A549 cells compared with 0 μM AHs: 150, 300, 600, 1200 μM, 24 h; for viability of A549 cells compared with 0 μM AHs / IC50: CCK-8; for viability with HC-030031 pre-treatment compared with AHs treatment alone: A549 cells, HC-030031 50 μM, AHs 150, 300, 600 μM
Method: as §2, with “Additionally, WT/TRPA1-KO A549 cells were pre-treated with TRPA1 special inhibitor HC-030031 (100 μM) for 0.5 h and then treated with AHs gradient concentrations for 24 h.” left out
as §3

[6] = molecular target: hTRPA1 ARD recombinant protein (Homo sapiens, UniProt O75762); experiment: LSPR binding analysis (OpenSPR, COOH chip); settings: at the analyte concentrations tested (up to 1000-2000 μM)
Chain of hTRPA1 ARD recombinant protein (O75762 62-609): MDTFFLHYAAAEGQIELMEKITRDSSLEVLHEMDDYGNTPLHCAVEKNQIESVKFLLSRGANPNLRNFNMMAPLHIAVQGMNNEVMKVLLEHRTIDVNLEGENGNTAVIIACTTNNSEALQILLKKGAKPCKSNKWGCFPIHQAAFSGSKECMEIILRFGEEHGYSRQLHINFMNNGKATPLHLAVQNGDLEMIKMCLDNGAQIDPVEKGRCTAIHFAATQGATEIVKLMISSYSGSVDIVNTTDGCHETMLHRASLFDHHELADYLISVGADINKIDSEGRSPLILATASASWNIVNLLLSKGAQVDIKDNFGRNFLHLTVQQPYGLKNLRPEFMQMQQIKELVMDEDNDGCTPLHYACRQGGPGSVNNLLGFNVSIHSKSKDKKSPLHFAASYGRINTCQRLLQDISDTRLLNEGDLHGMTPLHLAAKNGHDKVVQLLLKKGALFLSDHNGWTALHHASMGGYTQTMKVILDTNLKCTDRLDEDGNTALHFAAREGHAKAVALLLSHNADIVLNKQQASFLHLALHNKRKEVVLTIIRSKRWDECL
Method: The binding capacity of hTRPA1 ARD recombinant protein and AHs was determined by LSPR according to the OpenSPR (Nicoya Life Sciences, Kitchener, ON, Canada) operating procedure using the COOH chip. After the baseline signal was obtained, the sample was washed with 200 µL 80% isopropyl alcohol for 10 s, and 200 µL ethylcarbodiimide/N-hydroxysuccinimide solution was added. The sample loop was rinsed with phosphate-buffered saline (PBS). hTRPA1 (5 µL) was diluted with PBS, incubated for 4 min, and 200 µL blocking solution was added. […] Contact and dissociation time of analytes and protein were 240 s and 160 s, respectively. TraceDrawer software was applied to determine the association constant (ka), dissociation constant (kd), and affinity constant (KD) using a 1:1 model.

[7] = system: TRPA1 mRNA in A549 cells; experiment: RT-qPCR of TRPA1 mRNA; type: cell-based, human; settings: for TRPA1 mRNA expression with HC-030031 pre-treatment compared with AHs treatment alone: HC-030031 50 μM, AHs 150, 300, 600 μM; for expression of TRPA1 mRNA compared with 0 μM AHs: significant at one or more of 150, 300, 600 μM
Method: as §2, with “Additionally, WT/TRPA1-KO A549 cells were pre-treated with TRPA1 special inhibitor HC-030031 (100 μM) for 0.5 h and then treated with AHs gradient concentrations for 24 h.” left out
TRIzol Reagent (1 mL) was directly added to WT/TRPA1-KO A549 cells in 6-well plates and total RNA was extracted according to the manufacturer’s instructions. Total RNA was used for cDNA reverse transcription, which was performed according to the PrimeScript RT protocol with the following reaction conditions: 42 °C for 2 min, 4 °C for ∞ (removal of genomic DNA), 37 °C for 15 min, 85 °C for 5 s, and 4 °C for ∞ (reverse transcriptional reaction). RT-qPCR was performed according to the TB Green Premix Ex Taq II protocol. Primer sequences and product lengths were as follows: hTRPA1 (107 bp) forward primer 5′-[…]-3′, reverse primer 5′-[…]-3′; hβ-actin (184 bp) forward primer 5′-[…]-3′, reverse primer 5′-[…]-3′. RT-qPCR was performed using the CFX96 Real-Time System (Bio-Rad Laboratories, Hercules, CA, USA) using the following reaction conditions: 95 °C for 30 s, 40 cycles of 95 °C for 5 s, 60 °C for 30 s, and 72 °C for 30 s, followed by a melting curve from 65 to 95 °C in 0.5 °C/5 s increments. Calculations were performed using the CFX Manager^TM Version 1.0 software (Bio-Rad Laboratories Ltd., Hercules, CA, USA) and are represented as fold change in expression [2^ΔΔC(t)] on a linear scale.

[8] = Homo sapiens, WT A549 cells, 24 h treatment, read-out: IC50 values of AHs, A549 Cells
[9] = WT A549 cells pre-treated with HC-030031 50 μM, then AHs 24 h, read-out: IC50 values of AHs, A549 Cells + HC-030031 50 μM

| SMILES | IC50 [1] | viability of TRPA1-KO A549 cells compared with AHs-treated WT cells [1] | cell damage (LDH) compared with 0 μM AHs ([2]; 150, 300, 600, 1200 μM, 24 h) | calcium influx compared with 0 μM AHs [3] | calcium influx with HC-030031 pre-treatment compared with AHs treatment alone [3] | calcium influx with KO of TRPA1 compared with AHs-treated WT cells [4] | viability of A549 cells compared with 0 μM AHs [5] | viability with HC-030031 pre-treatment compared with AHs treatment alone [5] | IC50 [5, 8] | IC50 [5, 9] | binding between hTRPA1 and AHs (LSPR) [6] | TRPA1 mRNA expression with HC-030031 pre-treatment compared with AHs treatment alone [7] | expression of TRPA1 mRNA compared with 0 μM AHs [7] | cell damage (LDH) compared with 0 μM AHs [2] |
| --- | --- | --- | --- | --- | --- | --- | --- | --- | --- | --- | --- | --- | --- | --- |
| CCc1cccc(C)c1N(COC(C)C)C(=O)CCl [Propisochlor, propisochlor] | 1830 µM | significantly increased the viability | significantly increased cell damage | significantly increased | significantly decreased calcium influx | significantly decreased calcium influx | significantly decreased | albeit not significantly | 564 µM | 1690 µM | Obvious binding was not detected | albeit not significantly | significantly increased |  |
| CCCCOCN(C(=O)CCl)c1c(CC)cccc1CC [Butachlor, butachlor] | 767 µM | significantly increased the viability |  | significantly increased | significantly decreased calcium influx | significantly decreased calcium influx | significantly decreased | significantly increased viability | 619 µM | 1760 µM | Obvious binding was not detected | significantly reduced | significantly increased | significantly increased cell damage |
| CCOCN(C(=O)CCl)c1c(C)cccc1CC [Acetochlor, acetochlor] | 696 µM | significantly increased the viability |  | significantly increased | significantly decreased calcium influx | significantly decreased calcium influx | significantly decreased | significantly increased viability | 524 µM | 647 µM | Obvious binding was not detected | significantly reduced | significantly increased |  |
| CCc1cccc(CC)c1N(COC)C(=O)CCl [Alachlor, alachlor] | 659 µM | significantly increased the viability | significantly increased cell damage | significantly increased | significantly decreased calcium influx | significantly decreased calcium influx | significantly decreased | significantly increased viability | 565 µM | 731 µM | Obvious binding was not detected | significantly reduced | significantly increased |  |
